In ChEMBL document CHEMBL1909294, “Translating clinical findings into knowledge in drug safety evaluation--drug induced liver injury prediction system (DILIps)” (PLoS Comput Biol, 2011):

Columns and labels:
Hepatotoxicity [1] = system: Hepatotoxicity;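 as to HepSE Combined Scores: combined hepatic side effect score as listed in the training data of the Drug Induced Liver Injury Prediction System (DILIps)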;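 as to HepSE cholecystitis: Cholecystitis-related hepatic side effect score drawn from the DILIps (drug-induced liver injury prediction) training data set; call rule not given here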; as to HepSE hepatic failure: call rule not given here;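 as to HepSE hepatitis: Hepatitis-related hepatic side effect score taken from the training data of DILIps, a prediction system for drug-induced liver injury; call rule not given here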;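 as to HepSE jaundice: Jaundice-related hepatic side-effect score drawn from the training data of the DILIps (drug-induced liver injury prediction system); call rule not given here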; as to HepSE liver disease: call rule not given here;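 as to HepSE liver fatty: hepatic side effect score for fatty liver, taken from the DILIps training set for predicting drug-induced liver injury; call rule not given here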
Hepatotoxicity [2] = system: Hepatotoxicity; remark: listed apart in the source;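 as to HepSE Combined Scores: combined hepatic side effect score as listed in the training data of the Drug Induced Liver Injury Prediction System (DILIps)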;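 as to HepSE cholecystitis: Cholecystitis-related hepatic side effect score drawn from the DILIps (drug-induced liver injury prediction) training data set; call rule not given here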; as to HepSE hepatic failure: call rule not given here;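 as to HepSE hepatitis: Hepatitis-related hepatic side effect score taken from the training data of DILIps, a prediction system for drug-induced liver injury; call rule not given here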;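 as to HepSE jaundice: Jaundice-related hepatic side-effect score drawn from the training data of the DILIps (drug-induced liver injury prediction system); call rule not given here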; as to HepSE liver disease: call rule not given here;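 as to HepSE liver fatty: hepatic side effect score for fatty liver, taken from the DILIps training set for predicting drug-induced liver injury; call rule not given here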
Hepatotoxicity [3] = system: Hepatotoxicity; remark: listed apart in the source;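 as to HepSE Combined Scores: combined hepatic side effect score as listed in the training data of the Drug Induced Liver Injury Prediction System (DILIps)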;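 as to HepSE cholecystitis: Cholecystitis-related hepatic side effect score drawn from the DILIps (drug-induced liver injury prediction) training data set; call rule not given here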; as to HepSE hepatic failure: call rule not given here;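 as to HepSE hepatitis: Hepatitis-related hepatic side effect score taken from the training data of DILIps, a prediction system for drug-induced liver injury; call rule not given here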;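 as to HepSE jaundice: Jaundice-related hepatic side-effect score drawn from the training data of the DILIps (drug-induced liver injury prediction system); call rule not given here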; as to HepSE liver disease: call rule not given here;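 as to HepSE liver fatty: hepatic side effect score for fatty liver, taken from the DILIps training set for predicting drug-induced liver injury; call rule not given here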
Hepatotoxicity [4] = system: Hepatotoxicity; remark: listed apart in the source;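 as to HepSE Combined Scores: combined hepatic side effect score as listed in the training data of the Drug Induced Liver Injury Prediction System (DILIps)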;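 as to HepSE cholecystitis: Cholecystitis-related hepatic side effect score drawn from the DILIps (drug-induced liver injury prediction) training data set; call rule not given here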; as to HepSE hepatic failure: call rule not given here;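 as to HepSE hepatitis: Hepatitis-related hepatic side effect score taken from the training data of DILIps, a prediction system for drug-induced liver injury; call rule not given here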;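 as to HepSE jaundice: Jaundice-related hepatic side-effect score drawn from the training data of the DILIps (drug-induced liver injury prediction system); call rule not given here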; as to HepSE liver disease: call rule not given here;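 as to HepSE liver fatty: hepatic side effect score for fatty liver, taken from the DILIps training set for predicting drug-induced liver injury; call rule not given here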
Hepatotoxicity [5] = system: Hepatotoxicity; remark: listed apart in the source; as to HepSE hepatic failure: call rule not given here
Hepatotoxicity [6] = system: Hepatotoxicity; remark: listed apart in the source; as to HepSE hepatic failure: call rule not given here
Hepatotoxicity [7] = system: Hepatotoxicity; remark: listed apart in the source
Hepatotoxicity [8] = system: Hepatotoxicity; remark: listed apart in the source
Hepatotoxicity [9] = system: Hepatotoxicity; remark: listed apart in the source
Hepatotoxicity [10] = system: Hepatotoxicity; remark: listed apart in the source
Hepatotoxicity [11] = system: Hepatotoxicity; remark: listed apart in the source
Hepatotoxicity [12] = system: Hepatotoxicity; remark: listed apart in the source

| SMILES | HepSE_hepatitis (Hepatotoxicity [1]; Liver) | HepSE_liver fatty (Hepatotoxicity [2]; Liver) | HepSE_cholelithiasis (Hepatotoxicity [3]; Liver) | HepSE_jaundice (Hepatotoxicity [4]; Liver) | HepSE_cholecystitis (Hepatotoxicity [5]; Liver) | HepSE_Combined Scores (Hepatotoxicity [6]; Liver) | HepSE_bilirubinemia (Hepatotoxicity [7]; Liver) | HepSE_hepatic failure (Hepatotoxicity [8]; Liver) | HepSE_hepatic necrosis (Hepatotoxicity [9]; Liver) | HepSE_liver disease (Hepatotoxicity [10]; Liver) | HepSE_hepatomegaly (Hepatotoxicity [11]; Liver) | HepSE_cirrhosis (Hepatotoxicity [12]; Liver) | other results |
| --- | --- | --- | --- | --- | --- | --- | --- | --- | --- | --- | --- | --- | --- |
| COc1ccc(CCN(C)CCCC(C#N)(c2ccc(OC)c(OC)c2)C(C)C)cc1OC (stereo not given) | – | – | – | – | – | – | – | – | – | – | – | – | HepSE_hepatitis (Hepatotoxicity [1]): 1; HepSE_liver fatty (Hepatotoxicity [2]): 0; HepSE_cholelithiasis (Hepatotoxicity [3]): 0; HepSE_jaundice (Hepatotoxicity [4]): 1; HepSE_cholecystitis (Hepatotoxicity [5]): 0; HepSE_Combined Scores (Hepatotoxicity [6]): 2; HepSE_bilirubinemia (Hepatotoxicity [7]): 0; HepSE_hepatic failure (Hepatotoxicity [8]): 0; HepSE_hepatic necrosis (Hepatotoxicity [9]): 0; HepSE_liver disease (Hepatotoxicity [10]): 0; HepSE_hepatomegaly (Hepatotoxicity [11]): 0; HepSE_cirrhosis (Hepatotoxicity [12]): 0 |
| NCCCC(O)(P(=O)(O)O)P(=O)(O)O [ALENDRONIC ACID] | 0 | 0 | 0 | 0 | 0 | 0 | 0 | 0 | 0 | 0 | 0 | 0 | – |
| CCCCc1oc2ccccc2c1C(=O)c1cc(I)c(OCCN(CC)CC)c(I)c1 [AMIODARONE] | 1 | 0 | 0 | 0 | 0 | 5 | 0 | 0 | 0 | 1 | 1 | 1 | – |
| CC(C)NCC(O)COc1ccc(CC(N)=O)cc1 (stereo not given) [ATENOLOL] | 0 | 0 | 0 | 0 | 0 | 0 | 0 | 0 | 0 | 0 | 0 | 0 | – |
| CC(C)c1c(C(=O)Nc2ccccc2)c(-c2ccccc2)c(-c2ccc(F)cc2)n1CC[C@@H](O)C[C@@H](O)CC(=O)O [ATORVASTATIN] | 1 | 0 | 0 | 1 | 0 | 3 | 0 | 0 | 0 | 0 | 0 | 0 | – |
| CN1[C@@H]2CC[C@H]1C[C@@H](OC(=O)C(CO)c1ccccc1)C2 (stereo not given in full) [ATROPINE] | 0 | 0 | 0 | 0 | 0 | 0 | 0 | 0 | 0 | 0 | 0 | 0 | – |
| CC1=C(C(=O)O)N2C(=O)[C@@H](NC(=O)[C@H](N)c3ccccc3)[C@H]2SC1 [CEPHALEXIN ANHYDROUS] | 1 | 0 | 0 | 1 | 0 | 2 | 0 | 0 | 0 | 0 | 0 | 0 | – |
| O=C(O)COCCN1CCN(C(c2ccccc2)c2ccc(Cl)cc2)CC1 (stereo not given) [CETIRIZINE] | 1 | 0 | 0 | 1 | 0 | 2 | 0 | 0 | 0 | 0 | 0 | 0 | – |
| O=C(O)c1cn(C2CC2)c2cc(N3CCNCC3)c(F)cc2c1=O [CIPROFLOXACIN] | 1 | 0 | 0 | 1 | 0 | 7 | 1 | 1 | 1 | 0 | 1 | 0 | – |
| Clc1ccc2c(c1)CCc1cccnc1C2=C1CCNCC1 [DESLORATADINE] | – | – | – | – | – | – | – | – | – | – | – | – | HepSE_hepatitis (Hepatotoxicity [1]): 1; HepSE_liver fatty (Hepatotoxicity [2]): 0; HepSE_cholelithiasis (Hepatotoxicity [3]): 0; HepSE_jaundice (Hepatotoxicity [4]): 0; HepSE_cholecystitis (Hepatotoxicity [5]): 0; HepSE_Combined Scores (Hepatotoxicity [6]): 1; HepSE_bilirubinemia (Hepatotoxicity [7]): 0; HepSE_hepatic failure (Hepatotoxicity [8]): 0; HepSE_hepatic necrosis (Hepatotoxicity [9]): 0; HepSE_liver disease (Hepatotoxicity [10]): 0; HepSE_hepatomegaly (Hepatotoxicity [11]): 0; HepSE_cirrhosis (Hepatotoxicity [12]): 0 |
| CN1C(=O)CN=C(c2ccccc2)c2cc(Cl)ccc21 [DIAZEPAM] | 0 | 0 | 0 | 1 | 0 | 1 | 0 | 0 | 0 | 0 | 0 | 0 | – |
| CN(C)CCOC(c1ccccc1)c1ccccc1 [DIPHENHYDRAMINE] | 0 | 0 | 0 | 0 | 0 | 0 | 0 | 0 | 0 | 0 | 0 | 0 | – |
| CC(C)(C(=O)O)c1ccc(C(O)CCCN2CCC(C(O)(c3ccccc3)c3ccccc3)CC2)cc1 (stereo not given) [FEXOFENADINE] | 0 | 0 | 0 | 0 | 0 | 0 | 0 | 0 | 0 | 0 | 0 | 0 | – |
| Cc1ccc(NC(=O)c2ccc(CN3CCN(C)CC3)cc2)cc1Nc1nccc(-c2cccnc2)n1 [IMATINIB] | – | – | – | – | – | – | – | – | – | – | – | – | HepSE_hepatitis (Hepatotoxicity [1]): 1; HepSE_liver fatty (Hepatotoxicity [2]): 0; HepSE_cholelithiasis (Hepatotoxicity [3]): 0; HepSE_jaundice (Hepatotoxicity [4]): 1; HepSE_cholecystitis (Hepatotoxicity [5]): 0; HepSE_Combined Scores (Hepatotoxicity [6]): 4; HepSE_bilirubinemia (Hepatotoxicity [7]): 0; HepSE_hepatic failure (Hepatotoxicity [8]): 1; HepSE_hepatic necrosis (Hepatotoxicity [9]): 1; HepSE_liver disease (Hepatotoxicity [10]): 0; HepSE_hepatomegaly (Hepatotoxicity [11]): 0; HepSE_cirrhosis (Hepatotoxicity [12]): 0 |
| CCN(CC)CC(=O)Nc1c(C)cccc1C [LIDOCAINE] | 0 | 0 | 0 | 0 | 0 | 0 | 0 | 0 | 0 | 0 | 0 | 0 | – |
| CCOC(=O)N1CCC(=C2c3ccc(Cl)cc3CCc3cccnc32)CC1 [LORATADINE] | 0 | 0 | 0 | 0 | 0 | 0 | 0 | 0 | 0 | 0 | 0 | 0 | – |
| CN1CC[C@]23c4c5ccc(O)c4O[C@H]2[C@@H](O)C=C[C@H]3[C@H]1C5 [MORPHINE] | 0 | 0 | 0 | 0 | 0 | 1 | 0 | 0 | 0 | 0 | 0 | 0 | – |
| COc1ccc2cc([C@H](C)C(=O)O)ccc2c1 [NAPROXEN] | 1 | 0 | 1 | 1 | 1 | 6 | 0 | 1 | 0 | 0 | 0 | 0 | – |
| CCCNCC(O)COc1ccccc1C(=O)CCc1ccccc1 (stereo not given) [PROPAFENONE] | 1 | 0 | 0 | 1 | 0 | 4 | 0 | 0 | 0 | 0 | 1 | 0 | – |
| CC(C)c1nc(CN(C)C(=O)N[C@H](C(=O)N[C@@H](Cc2ccccc2)C[C@H](O)[C@H](Cc2ccccc2)NC(=O)OCc2cncs2)C(C)C)cs1 [RITONAVIR] | – | – | – | – | – | – | – | – | – | – | – | – | HepSE_hepatitis (Hepatotoxicity [1]): 1; HepSE_liver fatty (Hepatotoxicity [2]): 0; HepSE_cholelithiasis (Hepatotoxicity [3]): 0; HepSE_jaundice (Hepatotoxicity [4]): 1; HepSE_cholecystitis (Hepatotoxicity [5]): 0; HepSE_Combined Scores (Hepatotoxicity [6]): 3; HepSE_hepatic necrosis (Hepatotoxicity [9]): 0; HepSE_liver disease (Hepatotoxicity [10]): 0; HepSE_hepatomegaly (Hepatotoxicity [11]): 1; HepSE_cirrhosis (Hepatotoxicity [12]): 0 |
| CN1[C@@H]2C[C@@H](OC(=O)[C@H](CO)c3ccccc3)C[C@H]1[C@@H]1O[C@@H]12 [SCOPOLAMINE] | 0 | 0 | 0 | 0 | 0 | 0 | 0 | 0 | 0 | 0 | 0 | 0 | – |
